The values that follow come from patent US8968750B2, “Malaria vaccines based on apicomplexan ferlins, ferlin-like proteins and other C2-domain containing proteins” (Ruprecht-Karls-Universität Heidelberg, priority 2009, dated 2015).

This assay has as its system peripheral blood mononuclear cells (PBMC). Briefly: cultured IFNγ ELISpot over 10 days with PBMCs stimulated with Pf Ferlin epitopes. Type of assay: cell-based, human. How it is done: Each epitope was tested both individually and in pools of epitopes, which is summarised in this figure. Freshly isolated PBMCs from the blood of malaria-exposed and non-exposed (naïve) individuals were stimulated with the Pf Ferlin epitopes. The secretion of IFNγ was analysed by ELISpot. Pf AMA1, a known malarial blood stage antigen, was used as a positive control (FIG. 12B).
In order to investigate the presence of Pf Ferlin-specific T cells in malaria-exposed individuals, T-cell responses to Pf Ferlin peptides (NLLDPLVVV (SEQ ID NO:4), YLYVNIHKI (SEQ ID NO:5), LLLEGNFYL (SEQ ID NO:6), KLIPVNYEL (SEQ ID NO:7), YLYEKQQEL (SEQ ID NO:8), ILIPSLPLI (SEQ ID NO:9)) were tested in semi-immune Kenyan adults in collaboration with Dr. Britta urban at the Kenyan Medical Research Institute-Wellcome Trust Research Programme (KEMRI). All adults are resident in Junju District, about 60 km north of Mombasa at the Kenyan coast. The area has two high transmission seasons but low-level transmission occurs all year round (infectious bites per year:23-53) (Mwangi et al., 2005).
In order to determine the production of antigen-specific IFNγ by activated peripheral blood mononuclear cells (PBMC), cultured ELISpot analysis was carried out over a period of 10 days in malaria-exposed adults and malaria-naïve individuals. […] Furthermore, when studying the production of antigen-specific IFN-γ by activated peripheral blood mononuclear cells (PBMC) in 12 malaria-exposed adults and 5 malaria-naive individuals, Pf Ferlin-specific T cells were detected to at least one peptide in 4 out of 12 and to more than one peptide in 3 out of 12 malaria-exposed adults (Table 2).

For the sequence “LLLEGNFYL (listed as Plasmodium falciparum) [Epitope 3]”, the “INFγ response to individual peptide (responder)” value (“INFγ response” for short) runs as follows: (Patient Ad) “no (An INFγ response above SFC 500 identified the patient as a responder.)”; (Patient Fr) “no (An INFγ response above SFC 500 identified the patient as a responder.)”; (Patient JA006) “no (An INFγ response above SFC 500 identified the patient as a responder.)”; (Patient JA029) “yes (An INFγ response above SFC 500 identified the patient as a responder.)”; (Patient JA030) “no (An INFγ response above SFC 500 identified the patient as a responder.)”; (Patient JA046) “no (An INFγ response above SFC 500 identified the patient as a responder.)”. The “INFγ response” value is “no (An INFγ response above SFC 500 identified the patient as a responder.)” (Patient JA047), “no (An INFγ response above SFC 500 identified the patient as a responder.)” (Patient JA066), “no (An INFγ response above SFC 500 identified the patient as a responder.)” (Patient JA067) and “yes (An INFγ response above SFC 500 identified the patient as a responder.)” (Patient JA086).
With “YLYEKQQEL (listed as Plasmodium falciparum) [Epitope 5]”, the “INFγ response” value by setting is: (Patient Ad) “no (An INFγ response above SFC 500 identified the patient as a responder.)”; (Patient Fr) “no (An INFγ response above SFC 500 identified the patient as a responder.)”; (Patient JA006) “no (An INFγ response above SFC 500 identified the patient as a responder.)”; (Patient JA029) “no (An INFγ response above SFC 500 identified the patient as a responder.)”; (Patient JA030) “yes (An INFγ response above SFC 500 identified the patient as a responder.)”; (Patient JA046) “no (An INFγ response above SFC 500 identified the patient as a responder.)”. Also, the “INFγ response” value (Patient JA047) is given as “no (An INFγ response above SFC 500 identified the patient as a responder.)” and the “INFγ response” value (Patient JA086) is “no (An INFγ response above SFC 500 identified the patient as a responder.)”.
In the case of “ILIPSLPLI (listed as Plasmodium falciparum) [Epitope 6]”, the “INFγ response” value runs as follows: (Patient Ad) “no (An INFγ response above SFC 500 identified the patient as a responder.)”; (Patient Fr) “no (An INFγ response above SFC 500 identified the patient as a responder.)”; (Patient JA029) “no (An INFγ response above SFC 500 identified the patient as a responder.)”; (Patient JA030) “yes (An INFγ response above SFC 500 identified the patient as a responder.)”; (Patient JA046) “no (An INFγ response above SFC 500 identified the patient as a responder.)”; (Patient JA047) “no (An INFγ response above SFC 500 identified the patient as a responder.)”. In addition, the “INFγ response” value (Patient JA066) is on record as “no (An INFγ response above SFC 500 identified the patient as a responder.)”, the “INFγ response” value (Patient JA067) is reported as “no (An INFγ response above SFC 500 identified the patient as a responder.)” and the “INFγ response” value (Patient JA086) is on record as “no (An INFγ response above SFC 500 identified the patient as a responder.)”.
Take “KLIPVNYEL (listed as Plasmodium falciparum) [Epitope 4]”: the “INFγ response” value (Patient Ad) is reported as “no (An INFγ response above SFC 500 identified the patient as a responder.)”; the “INFγ response” value (Patient Fr) was “no (An INFγ response above SFC 500 identified the patient as a responder.)”; the “INFγ response” value (Patient JA006) was “no (An INFγ response above SFC 500 identified the patient as a responder.)”; the “INFγ response” value (Patient JA007) is recorded as “no (An INFγ response above SFC 500 identified the patient as a responder.)”; the “INFγ response” value (Patient JA029) is recorded as “no (An INFγ response above SFC 500 identified the patient as a responder.)”; the “INFγ response” value (Patient JA030) is “yes (An INFγ response above SFC 500 identified the patient as a responder.)”. Besides, the “INFγ response” value runs as follows: (Patient JA046) “no (An INFγ response above SFC 500 identified the patient as a responder.)”; (Patient JA047) “no (An INFγ response above SFC 500 identified the patient as a responder.)”; (Patient JA066) “no (An INFγ response above SFC 500 identified the patient as a responder.)”; (Patient JA067) “no (An INFγ response above SFC 500 identified the patient as a responder.)”; (Patient JA086) “yes (An INFγ response above SFC 500 identified the patient as a responder.)”.
With “NLLDPLVVV (listed as Plasmodium falciparum) [Epitope 1]”, the “INFγ response” value is, setting by setting: (Patient Ad) “yes (An INFγ response above SFC 500 identified the patient as a responder.)”; (Patient Fr) “no (An INFγ response above SFC 500 identified the patient as a responder.)”; (Patient JA006) “no (An INFγ response above SFC 500 identified the patient as a responder.)”; (Patient JA007) “no (An INFγ response above SFC 500 identified the patient as a responder.)”; (Patient JA029) “yes (An INFγ response above SFC 500 identified the patient as a responder.)”; (Patient JA030) “no (An INFγ response above SFC 500 identified the patient as a responder.)”. The “INFγ response” value reads like this: (Patient JA046) “no (An INFγ response above SFC 500 identified the patient as a responder.)”; (Patient JA047) “no (An INFγ response above SFC 500 identified the patient as a responder.)”; (Patient JA066) “no (An INFγ response above SFC 500 identified the patient as a responder.)”; (Patient JA067) “no (An INFγ response above SFC 500 identified the patient as a responder.)”; (Patient JA086) “no (An INFγ response above SFC 500 identified the patient as a responder.)”; (Patient JA087) “no (An INFγ response above SFC 500 identified the patient as a responder.)”.
As for “YLYVNIHKI (listed as Plasmodium falciparum) [Epitope 2]”, the “INFγ response” value (Patient Ad) is listed as “no (An INFγ response above SFC 500 identified the patient as a responder.)”; the “INFγ response” value (Patient Fr) was “no (An INFγ response above SFC 500 identified the patient as a responder.)”; the “INFγ response” value (Patient JA006) is listed as “no (An INFγ response above SFC 500 identified the patient as a responder.)”; the “INFγ response” value (Patient JA029) is “yes (An INFγ response above SFC 500 identified the patient as a responder.)”; the “INFγ response” value (Patient JA030) is given as “no (An INFγ response above SFC 500 identified the patient as a responder.)”; the “INFγ response” value (Patient JA046) is “no (An INFγ response above SFC 500 identified the patient as a responder.)”. In addition, the “INFγ response” value is, setting by setting: (Patient JA047) “no (An INFγ response above SFC 500 identified the patient as a responder.)”; (Patient JA066) “no (An INFγ response above SFC 500 identified the patient as a responder.)”; (Patient JA067) “no (An INFγ response above SFC 500 identified the patient as a responder.)”; (Patient JA086) “no (An INFγ response above SFC 500 identified the patient as a responder.)”.
